{"source": "paper PMC2689075", "about": "(Current biology : CB, 2009)", "target": "T1, atypical protein kinase C (aPKC) (Drosophila melanogaster, UniProt A1Z9X0)", "T1 sequence (A1Z9X0 1-606)": "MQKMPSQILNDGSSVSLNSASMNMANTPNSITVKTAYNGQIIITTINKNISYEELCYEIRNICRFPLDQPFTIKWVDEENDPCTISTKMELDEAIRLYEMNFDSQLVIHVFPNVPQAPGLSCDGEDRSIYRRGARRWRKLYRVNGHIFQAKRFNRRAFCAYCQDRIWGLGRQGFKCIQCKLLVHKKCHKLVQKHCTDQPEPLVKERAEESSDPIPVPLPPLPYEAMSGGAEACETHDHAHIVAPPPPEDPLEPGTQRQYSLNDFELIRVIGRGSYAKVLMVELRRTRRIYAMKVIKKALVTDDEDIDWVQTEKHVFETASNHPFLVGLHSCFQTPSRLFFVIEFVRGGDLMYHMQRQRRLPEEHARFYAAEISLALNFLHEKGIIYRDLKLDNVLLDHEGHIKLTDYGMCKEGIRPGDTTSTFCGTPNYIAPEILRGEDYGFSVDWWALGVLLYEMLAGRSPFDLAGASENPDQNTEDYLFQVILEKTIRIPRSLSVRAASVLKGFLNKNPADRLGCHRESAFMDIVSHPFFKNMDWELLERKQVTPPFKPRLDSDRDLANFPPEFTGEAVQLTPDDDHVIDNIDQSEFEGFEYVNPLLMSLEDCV", "assay": "in vitro […] kinase assay with purified recombinant aPKC", "type": "biochemical", "data": [{"smiles": "C[C@@H](N)[C@H]1CC[C@H](C(=O)Nc2ccncc2)CC1", "note": "[Y-27632]", "values": [{"measurement": "IC50", "value": "< 10", "unit": "µM"}]}]}
